From US20250320190A1, “Novel Inhibitors of Leucine Carboxyl Methyltransferase-1 (LCMT-1) and Methods of Use Thereof” (Temple University-Of The Commonwealth System of Higher …, priority 2024, published 2025)
Converted amounts (≈) assume the structure as drawn.

Key:
Kinetic solubility = type: physicochemical; details: 2% dimethylsulfoxide/PBS, aqueous buffer, kinetic from dmso stock; read-out: Max. Kinetic Solubility
From the text: There is no cause for concern at this stage since there are multiple strategies and reagents for enhancing aqueous solubility for animal in vivo studies (Savjani, K. T., A. K. Gajjar and J. K. Savjani, 2012, ISRN Pharm 2012: 195727.). […] While target tissue exposure is dependent on free, unbound fractions in the plasma, plasma protein binding can protect compounds from hepatic metabolism. Thus, in vivo metabolism and excretion are often determined by a balance between these two properties. In vivo half-life is a complicated property impacted upon by multiple factors and is difficult to predict. […] While these numbers are somewhat low for a drug candidate, they are acceptable for proof of concept tool molecules which can be given multiple times per day and at higher doses to saturate metabolism.

MDA-MB-231 cells = assay: Radiosensitization assay (crystal violet); type: cell-based, human; details: 10 Grays, data not shown
Protocol: (§1) MCF7, MDA-MB-231, 501-MEL, Rosi, A549, SCC-15, SCC-25, UM-SCC-12, UM-SCC-14a, UM-SCC-49 and UM-SCC69 cells were seeded in 96-well tissue culture plates as previously described. After 24 hours, the media were changed to media with LCMT-li at various concentrations as described. After 3 hours, cells were irradiated at doses listed in Table 2 with an RS-2000 X-Ray Irradiator (Rad Source Technologies, Buford, Georgia). Radiation doses were based on published radiosensitization studies. After 24 hours cell viability was assessed using crystal violet staining. Briefly, cells were washed with PBS, then stained with crystal violet solution (0.25 g crystal violet in 20% methanol) for 20 minutes with agitation. The wells were washed 6 times with PBS to remove excess crystal violet. Plates were allowed to dry for 48 hours, and then 200 μL methanol was added to each well. The plates were agitated for 20 minutes to dissolve the crystal violet, and absorbance was read at 560 nm. The
(§2) radiosensitization assays were performed twice, each time with eight replicates per condition.

SCC-25 cells [1] = assay: Radiosensitization assay (crystal violet); type: cell-based, human; details: irradiated 8 Grays 3 hours after compound, viability after 24 hours
Protocol: as §1, §2

UM-SCC-12 cells [2] = assay: Radiosensitization assay (crystal violet); type: cell-based, human; details: irradiated 8 Grays 3 hours after compound, viability after 24 hours
Protocol: as §1, §2

A549 cells = assay: Radiosensitization assay (crystal violet); type: cell-based, human; details: 4 Grays
Protocol: as §1, §2

SCC-15 cells [3] = assay: Radiosensitization assay (crystal violet); type: cell-based, human; details: irradiated 8 Grays 3 hours after compound, viability after 24 hours, listed as LCMT-li
Protocol: as §1, §2

Rosi cells [4] = assay: Radiosensitization assay (crystal violet); type: cell-based, human
Protocol: as §1, §2

UM-SCC-69 cells [5] = assay: Radiosensitization assay (crystal violet); type: cell-based, human; details: irradiated 8 Grays 3 hours after compound, viability after 24 hours, listed as LCMT-li
Protocol: as §1, §2

SCC-25 cells [6] = assay: Annexin V assay with and without irradiation; type: cell-based, human; details: alone or in combination with irradiation
Protocol: (§3) Head and neck cancer (HNC) cell lines were used for further analyses. Cells were seeded in 60 mm dishes at a density of 8×10^5 cells/dish. After 24 hours, cells were treated with LCMT-li, radiotherapy or both. Control cells were given fresh media. Because radiosensitization was seen between 2.5-10 μM in SCC-15, SCC-25, UM-SCC-49, and UM-SCC-69, irradiated cells were treated with or without 10 μM LCMT-li as described. Twenty-four hours after treatment, cells were lifted with Accutase and washed twice with PBS (pH 7.4) with 10% FBS. Cells were resuspended in annexin V binding buffer (10 mM HEPES (pH 7.4), 140 mM NaCl and 2.5 mM CaCl2)) and labeled with FITC-anti-Annexin V and 7-AAD (Biolegend, San Diego, California, FITC Annexin V Apoptosis Detection Kit with 7-AAD, catalog #640922). Cell surface annexin V expression was assessed immediately with flow cytometry. Annexin V assays were performed with 12 replicates, 104 cells/replicate.

UM-SCC-12 cells [7] = assay: Annexin V assay with and without irradiation; type: cell-based, human
Protocol: as §3

UM-SCC-49 cells = assay: Annexin V assay with and without irradiation; type: cell-based, human; details: LCMT-li, irradiation or both
Protocol: as §3

SCC-15 cells [8] = assay: Annexin V assay with and without irradiation; type: cell-based, human
Protocol: as §3

UM-SCC-69 cells [9] = assay: Annexin V assay with and without irradiation; type: cell-based, human
Protocol: as §3

UM-SCC-14a cells = assay: Annexin V assay with and without irradiation; type: cell-based, human; details: LCMT-li combined with irradiation
Protocol: as §3

[10] = tested on: HEK-293 cells transfected with pCMV6-LCMT1; assay: Cytotoxicity assay in LCMT-1-transfected cells; type: cell-based; details: HEK-293 pCMV6-LCMT1 vs HEK-293; 0.78-50 μM; 48 hours
Protocol: A mammalian LCMT-1 plasmid expression vector was obtained from Origene (pCMV6-LCMT1, catalog #RC200018). HEK-293 cells were transfected with the plasmid using PolyJet™ transfection reagent (SignaGen Laboratories, Frederick, Maryland) according to manufacturer's directions. After 5 hours, the medium was changed. The next day, the transfected cells were seeded in 96-well optical bottom tissue culture plates for cytotoxicity assays as previously described. After 24 hours, the medium was changed to medium containing Compound 2 at various concentrations (0.78-50 μM), or fresh medium with the carrier (dimethyl sulfoxide) in the case of the control. After 48 hours, cells were stained with calcein-AM and fluorescence was measured.

Rosi cells [11] = assay: Cytotoxicity assay (calcein-AM); type: cell-based, human; details: Homo sapiens; Rosi; 48 hours; read-out: Log [μM] EC50 (converted)
Protocol: HS-5, HEK-293, MCF7, MDA-MB-231 and Rosi cells were seeded in 96-well optical bottom tissue culture plates (Corning, New York) at a density of 2.5×10^3 cells/well. […] Control cells were given fresh media. After 48 hours the media were aspirated and plates were washed with warmed Dulbecco's phosphate-buffered saline (DPBS) with calcium and magnesium (Sigma-Aldrich, catalog #D1283). Cells were stained with 3 μM calcein-AM (AAT Bioquest, Pleasanton, California, catalog #22002) in DPBS for 30 minutes in the dark at 37° C. Plates were immediately read with a Biotek fluorescent plate reader (excitation 485 nm, emission 520 nm). The cytotoxicity assays were performed at least three times, each time with six replicates per condition.

[12] = LCMT-li monotherapy vs control cells
[13] = 10 μM LCMT-li with irradiation vs irradiation alone

Compound: COC(=O)c1c(NC(=O)c2ccccc2C)sc(C(=O)Nc2cccc(C)c2)c1C [Compound 2, methyl 4-methyl-2-[(2-methylbenzoyl)amino]-5-[[(3-methylphenyl)amino]carbonyl]-3-thiophenecarboxylate]
- solubility kinetic (Kinetic solubility): 18.5 µM (≈ 7.82 µg/mL)
- radiosensitization (MDA-MB-231 cells): did not radiosensitize MDA-MB-231 cells
- LCMT-1i radiosensitizing Concentration (SCC-25 cells [1]; listed as LCMT-1i): 1.25 µM
- LCMT-1i radiosensitizing Concentration (SCC-25 cells [1]; listed as LCMT-li): 2.5 to 10 µM
- LCMT-1i radiosensitizing Concentration (UM-SCC-12 cells [2]): 200 µM
- radiosensitization (A549 cells): demonstrated radiosensitization
- LCMT-1i radiosensitizing Concentration (SCC-15 cells [3]): 2.5 to 10 µM
- radiosensitization (Rosi cells [4]; 8 Grays): demonstrated radiosensitization
- LCMT-1i radiosensitizing Concentration (Rosi cells [4]; irradiated 8 Grays 3 hours after compound, viability after 24 hours): 50 µM
- LCMT-1i radiosensitizing Concentration (UM-SCC-69 cells [5]): 2.5 to 10 µM
- apoptosis or ferroptosis (SCC-25 cells [6]): did not increase apoptosis or ferroptosis
- apoptosis (annexin V) (UM-SCC-12 cells [7]; [12]): increased apoptosis
- apoptosis (annexin V) (UM-SCC-12 cells [7]; with irradiation vs irradiation alone): did not increase apoptosis in the presence of irradiation as compared to irradiation alone
- apoptosis, necroptosis and ferroptosis (UM-SCC-49 cells): did not differ between the experimental conditions
- apoptosis (annexin V) (SCC-15 cells [8]; [13]): increased apoptosis in comparison to irradiation alone
- apoptosis (annexin V) (SCC-15 cells [8]; LCMT-li monotherapy vs control cells, 24 hours): increased apoptosis
- apoptosis (annexin V) (UM-SCC-69 cells [9]; [13]): increased apoptosis in comparison to irradiation alone
- apoptosis (annexin V) (UM-SCC-69 cells [9]; [12]): increased apoptosis
- programmed cell death (UM-SCC-14a cells): did not increase programmed cell death
- effect of LCMT-1 overexpression on survival in the presence of Compound 2 [10]: significantly increased survival
- EC50 (Rosi cells [11]): 3.16 µM
